The source of these data is article PMC10017790 (Nature Communications, 2023).

Data set [1] addresses T1, SlTRI (Solanum lycopersicum, UniProt A0A3Q7IM65).
T1 construct: gene LOC101265293; CDS cloned from cDNA into pET28a; recombinant His-tagged, Ni-NTA purified; Leu159 printed
In kind it is biochemical. The following applies: 200 uM NADPH, 0.1 M potassium phosphate pH 6.4, 30 C.

Data set [2] deals with T2, AbLS (Atropa belladonna, UniProt A0A3B6XRA5).
T2 construct: gene LS
Conditions: 1 mM tropine and 1 mM phenyllactate infiltrated; AbUGT1 coexpressed; 24 h.

Data set [3] has as its system O=C(O)C(=O)Cc1ccccc1. In words: purified protein. The following applies: 2 mM NADPH, 0.1 M Tris-HCl pH 8.0, 1 h.
Data set [4] relates to T3, PaPPAR.
T3 construct: gene PPAR
Format: biochemical, Petunia axillaris. Conditions: 2 mM NADPH, 0.1 M Tris-HCl pH 8.0, 1 h.

In data set [5] the test system is CaPPAR. In kind it is biochemical, Capsicum annuum. Conditions: 2 mM NADPH, 0.1 M Tris-HCl pH 8.0, 1 h.

T2 sequence (A0A3B6XRA5 34-476 limits assumed): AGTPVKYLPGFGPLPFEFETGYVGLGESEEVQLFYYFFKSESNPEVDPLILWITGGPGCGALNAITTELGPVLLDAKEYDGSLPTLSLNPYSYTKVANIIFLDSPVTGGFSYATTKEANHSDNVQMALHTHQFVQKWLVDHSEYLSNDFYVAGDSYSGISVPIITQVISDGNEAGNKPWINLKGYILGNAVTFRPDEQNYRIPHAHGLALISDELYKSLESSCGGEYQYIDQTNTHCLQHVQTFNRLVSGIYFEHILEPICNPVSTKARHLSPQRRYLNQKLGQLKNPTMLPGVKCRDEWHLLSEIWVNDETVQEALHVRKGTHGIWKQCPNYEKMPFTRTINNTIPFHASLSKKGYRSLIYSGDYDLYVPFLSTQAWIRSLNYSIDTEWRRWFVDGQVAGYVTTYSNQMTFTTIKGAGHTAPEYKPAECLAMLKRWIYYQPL
T1 sequence (A0A3Q7IM65 9-272): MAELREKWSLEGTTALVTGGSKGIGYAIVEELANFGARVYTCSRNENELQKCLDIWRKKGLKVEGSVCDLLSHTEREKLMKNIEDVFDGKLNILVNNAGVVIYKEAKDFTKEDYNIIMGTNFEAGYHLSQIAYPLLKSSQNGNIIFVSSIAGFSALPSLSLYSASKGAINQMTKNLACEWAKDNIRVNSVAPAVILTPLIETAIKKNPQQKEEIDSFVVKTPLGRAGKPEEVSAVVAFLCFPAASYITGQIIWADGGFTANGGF

As usually defined, the Km is the substrate concentration at which the rate is half of its maximum. For the compound `CN1[C@@H]2CC[C@H]1CC(=O)C2` [tropinone], in data set [1], the Km result is “TRI from tomato also showed TRI activity”.
On to `CN1[C@@H]2CC[C@H]1C[C@@H](O)C2` [tropine], for which the “transient expression in N. benthamiana leaves, littorine by UPLC-MS” value in data set [2] is “we detected littorine in tobacco leaves expressing DsLS and AbLS”.
Usually kcat stands for the maximal rate divided by the concentration of active sites. As to AbPPAR (Atropa belladonna), in data set [3], the Km came out at 2085 ± 461.3 µM and the kcat is 0.0098 ± 0.00074 s⁻¹.
For SlPPAR (Solanum lycopersicum) the same measures were 1380 ± 130 µM and 0.03355 ± 0.00253 s⁻¹.
Take `O=C(O)C(=O)Cc1ccccc1` [phenylpyruvic acid]: the Km in data set [4] was determined as 2650 ± 374 µM; in data set [5], 3020 ± 485 µM.
